Consider 16 molecules from patent US20260116920A1, “HUMAN TRANSFERRIN RECEPTOR BINDING PEPTIDE” (PEPTIDREAM INC., priority 2021, published 2026).

As a reminder, the Kd is the free concentration of one partner at which half of the binding sites on the other are occupied at equilibrium, for simple one-to-one binding.

The target of this assay is T1, human transferrin receptor (hTfR) (Homo sapiens, UniProt P02786).
T1 construct: made in house
The assay is described as follows: Evaluation of molecular interaction between transferrin receptor (hTfR) and peptide using surface plasmon resonance (SPR). In kind it is binding. The method in brief: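 Recombinant hTfR dimer (0.5 μM) immobilized on Ni-loaded NTA chip via EDC/NHS, ethanolamine-capped. Peptides at 5–100 nM in HEPES pH 8.0 buffer with 150 mM NaCl, 0.05% Tween 20, 0.1% BSA, 1.0% DMSO, flowed by single-cycle kinetics; KD from least-squares fit of sensorgrams.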
(In general: In SPR one partner is held on a chip, and binding of the other changes the refractive index at the surface.)

Where [1] appears, read: surface plasmon resonance, binding to hTfR, KD class symbol, read-out: SPR (KD value).

Values joined by “and” are separate entries in the source; they are usually repeats but may differ in a detail not shown here. Identical values can stand only once. Like-named read-outs stand apart in the source and are kept apart here.

T1 sequence (P02786 89-760 limits assumed): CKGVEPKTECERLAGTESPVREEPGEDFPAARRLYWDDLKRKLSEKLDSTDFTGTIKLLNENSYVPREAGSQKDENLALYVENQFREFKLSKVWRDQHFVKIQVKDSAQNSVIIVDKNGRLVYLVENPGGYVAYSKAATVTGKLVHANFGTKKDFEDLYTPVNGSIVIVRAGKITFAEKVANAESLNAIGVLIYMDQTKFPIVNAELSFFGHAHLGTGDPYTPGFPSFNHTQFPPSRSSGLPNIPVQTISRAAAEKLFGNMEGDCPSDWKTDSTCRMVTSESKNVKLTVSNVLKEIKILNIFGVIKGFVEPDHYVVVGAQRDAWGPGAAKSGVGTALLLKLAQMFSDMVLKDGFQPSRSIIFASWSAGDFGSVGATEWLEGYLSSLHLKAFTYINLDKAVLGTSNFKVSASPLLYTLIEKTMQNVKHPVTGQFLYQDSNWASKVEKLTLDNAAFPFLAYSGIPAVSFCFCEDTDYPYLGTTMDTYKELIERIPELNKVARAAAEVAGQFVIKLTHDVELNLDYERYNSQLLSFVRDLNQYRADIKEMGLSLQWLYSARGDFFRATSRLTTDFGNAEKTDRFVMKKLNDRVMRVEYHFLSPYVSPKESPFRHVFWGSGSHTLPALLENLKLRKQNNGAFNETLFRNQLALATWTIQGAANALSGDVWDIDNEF

In the case of `CC[C@H](C)[C@@H]1NC(=O)[C@H](Cc2ccc(OC)cc2)NC(=O)[C@H](Cc2ccc(O)cc2)NC(=O)[C@H](CC(N)=O)NC(=O)[C@H](Cc2c[nH]c3ccccc23)N(C)C(=O)[C@H](C(C)C)NC(=O)[C@H](Cc2ccc(F)cc2)N(C)C(=O)[C@H](C(C)C)NC(=O)[C@H](C)NC(=O)CSC[C@@H](C(N)=O)NC(=O)[C@H](Cc2ccc(O)cc2)N(C)C(=O)[C@H](Cc2ccccc2)NC(=O)[C@H](CCCCNC(=O)CCOCCOCCOCCOC)NC(=O)[C@H](CCCNC(=N)N)N(C)C(=O)[C@H]([C@@H](C)CC)NC1=O` [compound 8], under setting [1], the Kd is 1 to 100 nM.

In the case of `CC[C@H](C)[C@@H]1NC(=O)[C@H](Cc2ccc(O)cc2)NC(=O)[C@H](Cc2ccc(O)cc2)NC(=O)[C@H](CC(=O)N(C)C)NC(=O)[C@H](Cc2c[nH]c3ccccc23)NC(=O)[C@H](C(C)C)NC(=O)[C@H](Cc2ccccc2)N(C)C(=O)[C@H](C(C)C)NC(=O)[C@H](C)NC(=O)CSC[C@@H](C(N)=O)NC(=O)[C@H](Cc2ccc(O)cc2)N(C)C(=O)[C@H](Cc2ccc(O)cc2)NC(=O)[C@H](CCCNC(=N)N)NC(=O)[C@H](CCCNC(=N)N)NC(=O)[C@H]([C@@H](C)CC)NC1=O` [compound 9], the Kd under setting [1] lay within 100 to 1000 nM. With `CC[C@H](C)[C@@H]1NC(=O)[C@H](Cc2ccc(OC)cc2)NC(=O)[C@H](Cc2ccc(O)cc2)NC(=O)[C@H](CC(N)=O)NC(=O)[C@H](Cc2c[nH]c3ccccc23)N(C)C(=O)[C@H](C(C)C)NC(=O)[C@H](Cc2cccc(Cl)c2)N(C)C(=O)[C@H](C(C)C)NC(=O)[C@H](C)N(C)C(=O)CSC[C@@H](C(=O)NCCOCCOCCOCCOCCC(N)=O)NC(=O)[C@H](Cc2ccc(O)cc2)N(C)C(=O)[C@H](Cc2ccccc2)NC(=O)[C@@H](C)NC(=O)[C@H](CCCNC(=N)N)NC(=O)[C@H]([C@@H](C)CC)NC1=O` [compound 10], the Kd under setting [1] was in the range of 1 to 100 nM. With `CC[C@H](C)[C@@H]1NC(=O)[C@H](Cc2ccc(OC)cc2)NC(=O)[C@H](Cc2ccc(O)cc2)NC(=O)[C@H](CC(N)=O)NC(=O)[C@H](Cc2c[nH]c3ccccc23)NC(=O)[C@H](C(C)C)NC(=O)[C@H](Cc2cccc(Cl)c2)N(C)C(=O)[C@H](C(C)C)NC(=O)[C@H](C)NC(=O)CSC[C@@H](C(=O)NCC(=O)N[C@@H](CCCCN=[N+]=[N-])C(N)=O)NC(=O)[C@H](Cc2ccc(O)cc2)N(C)C(=O)[C@H](Cc2ccccc2)NC(=O)[C@H](CCCNC(=N)N)NC(=O)[C@H](CCCNC(=N)N)NC(=O)[C@H]([C@@H](C)CC)NC1=O` [compound 11], the Kd under setting [1] lay in the range of 1 to 100 nM. In the case of `CC[C@H](C)[C@@H]1NC(=O)[C@H](Cc2ccc(OC)cc2)NC(=O)[C@H](Cc2ccc(O)cc2)NC(=O)[C@H](CC(N)=O)NC(=O)[C@H](Cc2c[nH]c3ccccc23)NC(=O)[C@H](C(C)C)NC(=O)[C@H](Cc2cccc(Cl)c2)N(C)C(=O)[C@H](C(C)C)NC(=O)[C@H](C)NC(=O)CSC[C@@H](C(=O)NCC(=O)N[C@@H](CCCCN=[N+]=[N-])C(N)=O)NC(=O)[C@H](Cc2ccc(O)cc2)N(C)C(=O)[C@H](Cc2ccccc2)NC(=O)[C@H](CCCNC(=N)N)NC(=O)[C@H](CCCCN)NC(=O)[C@H]([C@@H](C)CC)NC1=O` [compound 12], the Kd under setting [1] fell in the range of 1 to 100 nM. Take `CC[C@H](C)[C@@H]1NC(=O)[C@H](Cc2ccc(O)cc2)NC(=O)[C@H](Cc2ccc(O)cc2)NC(=O)[C@H](CC(N)=O)NC(=O)[C@H](Cc2c[nH]c3ccccc23)NC(=O)[C@H](C(C)C)NC(=O)[C@H](Cc2ccccc2)N(C)C(=O)[C@H](C(C)C)NC(=O)[C@H](C)NC(=O)CSC[C@@H](C(=O)NCC(=O)N[C@@H](CCCCN=[N+]=[N-])C(N)=O)NC(=O)[C@H](Cc2ccc(O)cc2)N(C)C(=O)[C@H](Cc2ccc(O)cc2)NC(=O)[C@H](CCCNC(=N)N)NC(=O)[C@H](CCCNC(=N)N)NC(=O)[C@H]([C@@H](C)CC)NC1=O` [compound 13]: the Kd (SPR, immobilized recombinant hTfR, single-cycle kinetics, substitution variants of 894_3151, read-out: KD) was 1.3 nM and the Kd under setting [1] is below 1 nM. Further, the “KD (Each Peptide)/KD (894_3151)” value (ratio of KD to KD of 894_3151 (SEQ ID NO: 13)) was 1.0 and 1.4. As to `CC[C@H](C)[C@@H]1NC(=O)[C@H](Cc2ccc(O)cc2)NC(=O)[C@H](Cc2ccc(O)cc2)NC(=O)[C@H](CC(N)=O)NC(=O)[C@H](Cc2c[nH]c3ccccc23)NC(=O)[C@H](C(C)C)NC(=O)[C@H](Cc2ccccc2)N(C)C(=O)[C@H](C(C)C)NC(=O)[C@H](C)NC(=O)CSC[C@@H](C(=O)NCCOCCOCCOCCOCCC(N)=O)NC(=O)[C@H](Cc2ccc(O)cc2)N(C)C(=O)[C@H](Cc2ccccc2)NC(=O)[C@@H](CCCNC(=N)N)NC(=O)[C@H](CCCNC(=N)N)NC(=O)[C@H]([C@@H](C)CC)NC1=O` [compound 14], the Kd under setting [1] lay in the range of 1 to 100 nM.

For `CC[C@H](C)[C@@H]1NC(=O)[C@H](Cc2ccc(OC)cc2)NC(=O)[C@H](Cc2ccc(O)cc2)NC(=O)[C@H](CC(N)=O)NC(=O)[C@H](Cc2c[nH]c3ccccc23)NC(=O)[C@H](C(C)C)NC(=O)[C@H](Cc2ccccc2)N(C)C(=O)[C@H](C(C)C)NC(=O)[C@H](C)NC(=O)CSC[C@@H](C(=O)NCCOCCOCCOCCOCCC(N)=O)NC(=O)[C@H](Cc2ccc(O)cc2)N(C)C(=O)[C@H](Cc2ccccc2)NC(=O)[C@@H](CCCNC(=N)N)NC(=O)[C@H](CCCNC(=N)N)NC(=O)[C@H]([C@@H](C)CC)NC1=O` [compound 15], the Kd under setting [1] fell in the range of 1 to 100 nM.

`CC[C@H](C)[C@@H]1NC(=O)[C@H](Cc2ccc(O)cc2)NC(=O)[C@H](Cc2ccc(O)cc2)NC(=O)[C@H](CC(N)=O)NC(=O)[C@H](Cc2c[nH]c3ccccc23)NC(=O)[C@H](C(C)C)NC(=O)[C@H](Cc2ccccc2)N(C)C(=O)[C@H](C(C)C)NC(=O)[C@H](C)NC(=O)CSC[C@@H](C(=O)NCCOCCOCCOCCOCCC(N)=O)NC(=O)[C@H](Cc2ccc(O)cc2)N(C)C(=O)[C@H](Cc2ccccc2)NC(=O)[C@H](CCCNC(=N)N)NC(=O)[C@H](CCCNC(=N)N)N(C)C(=O)[C@H]([C@@H](C)CC)NC1=O` [compound 16]: under setting [1], the Kd fell in the range of 1 to 100 nM. For `CC[C@H](C)[C@@H]1NC(=O)[C@H](Cc2ccc(OC)cc2)NC(=O)[C@H](Cc2ccc(O)cc2)NC(=O)[C@H](CC(N)=O)NC(=O)[C@H](Cc2c[nH]c3ccccc23)NC(=O)[C@H](C(C)C)NC(=O)[C@H](Cc2ccccc2)N(C)C(=O)[C@H](C(C)C)NC(=O)[C@H](C)NC(=O)CSC[C@@H](C(=O)NCCOCCOCCOCCOCCC(N)=O)NC(=O)[C@H](Cc2ccc(O)cc2)N(C)C(=O)[C@H](Cc2ccccc2)NC(=O)[C@H](CCCNC(=N)N)NC(=O)[C@H](CCCNC(=N)N)N(C)C(=O)[C@H]([C@@H](C)CC)NC1=O` [compound 17], the Kd under setting [1] lay within 1 to 100 nM. Regarding `CC[C@H](C)[C@@H]1NC(=O)[C@H](Cc2ccc(O)cc2)NC(=O)[C@H](Cc2ccc(O)cc2)NC(=O)[C@H](CC(N)=O)NC(=O)[C@H](Cc2c[nH]c3ccc(Cl)cc23)NC(=O)[C@H](C(C)C)NC(=O)[C@H](Cc2ccccc2)N(C)C(=O)[C@H](C(C)C)NC(=O)[C@H](C)NC(=O)CSC[C@@H](C(=O)NCCOCCOCCOCCOCCC(N)=O)NC(=O)[C@H](Cc2ccc(O)cc2)N(C)C(=O)[C@H](Cc2ccccc2)NC(=O)[C@H](CCCNC(=N)N)NC(=O)[C@H](CCCNC(=N)N)NC(=O)[C@H]([C@@H](C)CC)NC1=O` [compound 18], under setting [1], the Kd was below 1 nM. Take `CC[C@H](C)[C@@H]1NC(=O)[C@H](Cc2ccc(OC)cc2)NC(=O)[C@H](Cc2ccc(O)cc2)NC(=O)[C@H](CC(N)=O)NC(=O)[C@H](Cc2c[nH]c3ccc(Cl)cc23)NC(=O)[C@H](C(C)C)NC(=O)[C@H](Cc2ccccc2)N(C)C(=O)[C@H](C(C)C)NC(=O)[C@H](C)NC(=O)CSC[C@@H](C(=O)NCCOCCOCCOCCOCCC(N)=O)NC(=O)[C@H](Cc2ccc(O)cc2)N(C)C(=O)[C@H](Cc2ccccc2)NC(=O)[C@H](CCCNC(=N)N)NC(=O)[C@H](CCCNC(=N)N)NC(=O)[C@H]([C@@H](C)CC)NC1=O` [compound 19]: the Kd under setting [1] is below 1 nM. Turning to `CC[C@H](C)[C@@H]1NC(=O)[C@H](Cc2ccc(O)cc2)NC(=O)[C@H](Cc2ccc(O)cc2)NC(=O)[C@H](CC(N)=O)NC(=O)[C@H](Cc2c[nH]c3ccc(Cl)cc23)NC(=O)[C@H](C(C)C)NC(=O)[C@H](Cc2ccccc2)N(C)C(=O)[C@H](C(C)C)NC(=O)[C@H](C)NC(=O)CSC[C@@H](C(=O)NCCOCCOCCOCCOCCC(N)=O)NC(=O)[C@H](Cc2ccc(O)cc2)N(C)C(=O)[C@H](Cc2ccccc2)NC(=O)[C@@H](CCCNC(=N)N)NC(=O)[C@H](CCCNC(=N)N)NC(=O)[C@H]([C@@H](C)CC)NC1=O` [compound 20], the Kd under setting [1] lay within 1 to 100 nM. With `CC[C@H](C)[C@@H]1NC(=O)[C@H](Cc2ccc(OC)cc2)NC(=O)[C@H](Cc2ccc(O)cc2)NC(=O)[C@H](CC(N)=O)NC(=O)[C@H](Cc2c[nH]c3ccc(Cl)cc23)NC(=O)[C@H](C(C)C)NC(=O)[C@H](Cc2ccccc2)N(C)C(=O)[C@H](C(C)C)NC(=O)[C@H](C)NC(=O)CSC[C@@H](C(=O)NCCOCCOCCOCCOCCC(N)=O)NC(=O)[C@H](Cc2ccc(O)cc2)N(C)C(=O)[C@H](Cc2ccccc2)NC(=O)[C@@H](CCCNC(=N)N)NC(=O)[C@H](CCCNC(=N)N)NC(=O)[C@H]([C@@H](C)CC)NC1=O` [compound 21], the Kd under setting [1] was 1 to 100 nM. Regarding `CC[C@H](C)[C@@H]1NC(=O)[C@H](Cc2ccc(O)cc2)NC(=O)[C@H](Cc2ccc(O)cc2)NC(=O)[C@H](CC(N)=O)NC(=O)[C@H](Cc2c[nH]c3ccc(Cl)cc23)NC(=O)[C@H](C(C)C)NC(=O)[C@H](Cc2ccc(F)cc2)N(C)C(=O)[C@H](C(C)C)NC(=O)[C@H](C)NC(=O)CSC[C@@H](C(=O)NCCOCCOCCOCCOCCC(N)=O)NC(=O)[C@H](Cc2ccc(O)cc2)N(C)C(=O)[C@H](Cc2ccccc2)NC(=O)[C@H](CCCNC(=N)N)NC(=O)[C@H](CCCNC(=N)N)NC(=O)[C@H]([C@@H](C)CC)NC1=O` [compound 22], the Kd under setting [1] is below 1 nM.

On to `CC[C@H](C)[C@@H]1NC(=O)[C@H](Cc2ccc(OC)cc2)NC(=O)[C@H](Cc2ccc(O)cc2)NC(=O)[C@H](CC(N)=O)NC(=O)[C@H](Cc2c[nH]c3ccc(Cl)cc23)NC(=O)[C@H](C(C)C)NC(=O)[C@H](Cc2ccc(F)cc2)N(C)C(=O)[C@H](C(C)C)NC(=O)[C@H](C)NC(=O)CSC[C@@H](C(=O)NCCOCCOCCOCCOCCC(N)=O)NC(=O)[C@H](Cc2ccc(O)cc2)N(C)C(=O)[C@H](Cc2ccccc2)NC(=O)[C@H](CCCNC(=N)N)NC(=O)[C@H](CCCNC(=N)N)NC(=O)[C@H]([C@@H](C)CC)NC1=O` [compound 23], for which, under setting [1], the Kd is below 1 nM.
